The target of one experiment is T1, Human-SGLT1 (Homo sapiens, UniProt P13866).
T1 sequence (P13866 1-664): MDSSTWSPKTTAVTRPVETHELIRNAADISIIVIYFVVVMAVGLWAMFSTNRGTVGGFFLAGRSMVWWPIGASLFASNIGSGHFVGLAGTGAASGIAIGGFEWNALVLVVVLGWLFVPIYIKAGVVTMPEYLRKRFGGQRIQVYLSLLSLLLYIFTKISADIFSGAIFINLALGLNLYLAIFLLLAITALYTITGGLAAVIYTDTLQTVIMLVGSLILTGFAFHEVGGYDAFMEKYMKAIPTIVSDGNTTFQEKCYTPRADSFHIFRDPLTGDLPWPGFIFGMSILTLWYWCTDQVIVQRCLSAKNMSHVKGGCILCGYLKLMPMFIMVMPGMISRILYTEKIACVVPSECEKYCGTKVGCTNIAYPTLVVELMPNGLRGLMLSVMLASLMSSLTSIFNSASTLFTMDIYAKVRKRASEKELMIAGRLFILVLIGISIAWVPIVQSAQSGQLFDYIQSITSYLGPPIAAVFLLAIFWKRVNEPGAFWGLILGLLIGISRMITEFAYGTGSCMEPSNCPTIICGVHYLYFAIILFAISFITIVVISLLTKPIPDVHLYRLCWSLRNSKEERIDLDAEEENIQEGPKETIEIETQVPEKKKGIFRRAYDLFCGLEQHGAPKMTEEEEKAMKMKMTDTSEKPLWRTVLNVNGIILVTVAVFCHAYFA
Kind of experiment: SGLT1 glucose transport test ([14C]-labeled methyl a-D-glucopyranoside uptake). The following applies: cells stably expressing Human-SGLT1; 37° C., 2 hours. In kind it is cell-based. An excerpt: Biological Activity Experiment 1: SGLT1 Glucose Transport Test.
(§1) 1. Purpose of the Experiment:
The effect of the compound on the glucose transport activity of SGLT1 transporter was detected by measuring the amount of [′C]-labeled glucose entering cells with high expression of Human-SGLT1.
The cells stably expressing Human-SGLT1 were constructed by Wuxi AppTec(Shanghai) Co., Ltd. SGLT1 cells were laid in Cytostar-T (PerkinElmer) 96-well cell culture plate and cultured overnight in 5% CO2 environment at 37° C.
2.2. SGLT1 Glucose Transport Test.
(§2) 1) Experimental buffer, including: 10 mM 4-hydroxyethylpiperazineethanesulfonic acid (HEPES), 1.2 mM magnesium chloride (MgCl2), 4.7 mM potassium chloride (KCl), 2.2 mM calcium chloride (CaCl2) and 120 mM sodium chloride (NaCl).
2) Compounds were serially diluted in 100% dimethyl sulfoxide (DMSO) starting at 1 mM and make a 5-folds, 8 points serials compound dilutions.
3) 3 μM [′^4C]-labeled methyl a-D-glucopyranoside was prepared with the experimental buffer.
4) The cells were treated with 49 uL of the experimental buffer, 1 μL of the gradient diluted compound and 50 μL of the 3 μM [^14C]-labeled methyl a-D-lucopyranosid solution at 37° C. for 2 hours.
5) The data were read with an isotope detector Micro beta Reader.
6) The IC50 value of the tested compound was obtained by the calculation formula: log(inhibitor) vs. response—Variable slope, using GraphPad Prism 5.0 software.

The target in a further experiment is T2, Human-SGLT2 (Homo sapiens, UniProt P31639).
T2 sequence (P31639 1-672): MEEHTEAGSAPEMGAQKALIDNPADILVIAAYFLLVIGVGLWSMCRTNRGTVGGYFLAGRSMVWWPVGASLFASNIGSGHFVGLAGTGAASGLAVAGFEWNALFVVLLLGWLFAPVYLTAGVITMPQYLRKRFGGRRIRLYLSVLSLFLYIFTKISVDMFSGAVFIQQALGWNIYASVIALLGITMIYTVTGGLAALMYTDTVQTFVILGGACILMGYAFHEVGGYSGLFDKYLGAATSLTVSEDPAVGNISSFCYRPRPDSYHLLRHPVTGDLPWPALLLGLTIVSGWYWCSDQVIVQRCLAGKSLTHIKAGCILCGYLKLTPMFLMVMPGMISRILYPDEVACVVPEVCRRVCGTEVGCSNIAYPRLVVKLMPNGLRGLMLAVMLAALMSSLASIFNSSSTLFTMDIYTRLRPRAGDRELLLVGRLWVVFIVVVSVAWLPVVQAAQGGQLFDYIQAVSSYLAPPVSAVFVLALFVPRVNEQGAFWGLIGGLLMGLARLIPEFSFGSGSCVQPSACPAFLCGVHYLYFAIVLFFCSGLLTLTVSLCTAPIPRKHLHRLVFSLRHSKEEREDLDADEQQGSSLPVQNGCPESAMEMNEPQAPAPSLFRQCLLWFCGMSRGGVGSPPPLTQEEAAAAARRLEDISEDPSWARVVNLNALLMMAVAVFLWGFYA
Kind of experiment: SGLT2 glucose transport test ([14C]-labeled methyl a-D-glucopyranoside uptake). In kind it is cell-based. The following applies: cells stably expressing Human-SGLT2; 37° C., 2 hours. The method, then:
Biological Activity Experiment 2: SGLT2 Glucose Transport Test.
as §1
The effect of the compound on the glucose transport activity of SGLT2 transporter was detected by measuring the amount of [^14C]-labeled glucose entering cells with high expression of Human-SGLT2.
The cells stably expressing Human-SGLT2 were constructed by Wuxi AppTec(Shanghai) Co., Ltd. SGLT2 cells were laid in 96-well cell culture plate (Greiner) and cultured overnight in 5% CO2 environment at 37° C.
2.2. SGLT2 Glucose Transport Test.
as §2
2) Stop buffer, including: 10 mM 4-hydroxyethylpiperazineethanesulfonic acid (HEPES), 1.2 mM magnesium chloride (MgCl2), 4.7 mM potassium chloride (KCl), 2.2 mM calcium chloride (CaCl2), 120 mM sodium chloride (NaCl) and 1 μM LX4211.
3) Compounds were serially diluted in 100% dimethyl sulfoxide (DMSO) starting at 10 uM and make a 5-folds, 8 points serials compound dilutions.
4) 6 μM [^14C]-labeled methyl a-D-lucopyranosid was prepared with the experimental buffer.
5) The cells were treated with 49 uL of the experimental buffer, 1 μL of the gradient diluted compound and 50 μL of the 6 μM [^14C]-labeled methyl a-D-lucopyranosid solution at 37° C. for 2 hours.
6) The solution was sucked out from holes, and the cells were rinsed with the stop buffer for 3 times.
7) The cells were lysed with 50 ul of 10% sodium hydroxide solution, the cell lysate was sucked into a scintillation tube, into which 2 mL scintillation solution was then added.
8) The data were read with an isotope detector Tricarb.
9) The IC50 value of the tested compound was obtained by the calculation formula: log(inhibitor) vs. response—Variable slope, using GraphPad Prism 5.0 software.

Among the data in patent US20200331950A1, “SGLTS INHIBITOR AND APPLICATION THEREOF” (SHANDONG DANHONG PHARMACEUTICAL CO., LTD., priority 2018, published 2020) are IC50 values, retold here.

The IC50 is the concentration at which inhibition is half-maximal. Low readings indicate inhibition by little substance, high ones a need for much substance. As for `CS[C@H]1OC(c2ccc(Cl)c(Cc3ccc(C4=CCC(F)(F)CC4)cc3)c2)[C@H](O)[C@@H](O)[C@@H]1O` (stereo partly drawn) [WXD001], the half-maximal inhibitory concentration (IC50) was 210 nM against Human-SGLT1 and 3.98 nM against Human-SGLT2.

Regarding `CS[C@H]1O[C@@H](c2ccc(C)c(Cc3ccc(C4=CCC(F)(F)CC4)cc3)c2)[C@H](O)[C@@H](O)[C@@H]1O` [WXD003], the IC50 against Human-SGLT1 amounted to 49.5 nM; on Human-SGLT2, 2.04 nM.

Consider `CCc1ccc([C@@H]2O[C@H](SC)[C@@H](O)[C@H](O)[C@H]2O)cc1Cc1ccc(C2=CCC(F)(F)CC2)cc1` [WXD010], for which the IC50 at Human-SGLT1 stood at 14.8 nM; against Human-SGLT2, 2.49 nM.
